Experimental data: patent US9359338B2, “Cyclopropanecarboxamido-substitute aromatic compounds as anti-tumor agents” (Crown Bioscience Inc. (Taiwan), priority 2012, dated 2016)
Like-named read-outs stand apart in the source and are kept apart here.

Tests used:
PLC-PRF-5 cells = assay: Inhibition of proliferation of PLC-PRF-5 cells (ATPlite); type: cell-based; conditions: Homo sapiens
From the text: Inhibitory Activity of Compounds to the Proliferation of PLC-PRF-5 Cells
• [experimental Method]: Use PerKinElmer's ATPlite™ Luminescence ATP Detection Assay System to evaluate the inhibitory activity of compounds to the proliferation of PLC-PRF-5 cells. • [Instruments]: ENVISION plate reader (PerKinElmer) and centrifuge (Thermo Scientific, Sorvall ST16R) • [material]: PLC-PRF-5 cells (ATCC), 96-well plate (Nunc, #165305), DMEM medium (Gibco, #11965-092), PBS (Invitrogen, #10010023), fetal bovine serum (Gibco, #16000044), DMSO (Sigma, #D2650), ATPlite™ Luminescence ATP Detection Assay System (PerkinElmer, #6016949), purified water (Millipore, type: Milli-Q). • [Protocol]: Grow PLC-PRF-5 cells in DMEM supplemented with 10% FBS. When the cells reach 80% confluency, collect cells by trypsinization and centrifugation at 800 rpm for 3 min. Resuspend cells with appropriate volume of medium and count cell numbers. Adjust cell concentration to 50000 cells/mL, and split 160 μL cell suspension per well into 96-well plates. Transfer the plates into cell culture incubator (37° C., 5% CO2) and incubate cells for 2 hrs. Prepare compound serial dilutions in culture medium with total 8 compound concentrations at 3-fold serial dilutions (the final top concentration starts from 30 μM). Dispense 40 μL of each test compound dilution into corresponding wells with DMSO at 0.3% final concentration. Continue incubating cells in cell culture incubator for additional 96 hrs at 37° C., 5% CO2. Discard culture medium, and wash cells once with PBS. Add 50 μL cell lysis buffer per well and shake plates for 5 min at room temperature to ensure complete lysis of cells. Then add 50 μL of substrate solution and shake plates for 1 min at room temperature. Allow the plates to incubate at room temperature for 5 min, followed by recording the luminescence signals using Envision, and subsequent data analysis. • [Samples]: Compounds in the examples and Sorafenib (positive control) • [Data analysis]: Use CBIS data analysis software to calculate IC50 values

KDR kinase (790-1356 AA) = KDR kinase (790-1356 AA) (Homo sapiens (Human), UniProt P35968); assay: Inhibitory activity at KDR kinase (Lance Ultra Ulight-TK assay); type: biochemical
Chain of KDR kinase (790-1356 AA) (P35968 790-1356): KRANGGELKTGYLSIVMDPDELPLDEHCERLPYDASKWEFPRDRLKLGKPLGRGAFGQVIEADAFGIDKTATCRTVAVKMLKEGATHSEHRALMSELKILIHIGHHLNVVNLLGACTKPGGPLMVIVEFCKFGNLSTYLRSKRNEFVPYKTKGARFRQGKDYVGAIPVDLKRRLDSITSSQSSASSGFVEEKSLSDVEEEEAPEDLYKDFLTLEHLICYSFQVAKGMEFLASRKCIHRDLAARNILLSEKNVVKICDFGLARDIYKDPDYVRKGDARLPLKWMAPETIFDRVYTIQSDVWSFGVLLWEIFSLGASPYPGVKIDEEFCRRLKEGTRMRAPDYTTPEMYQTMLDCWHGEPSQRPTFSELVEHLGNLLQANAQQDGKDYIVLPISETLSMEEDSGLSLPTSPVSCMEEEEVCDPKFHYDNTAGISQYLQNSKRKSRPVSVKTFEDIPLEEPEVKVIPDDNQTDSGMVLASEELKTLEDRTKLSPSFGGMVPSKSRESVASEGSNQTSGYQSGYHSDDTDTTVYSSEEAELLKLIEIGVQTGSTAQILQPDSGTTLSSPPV
Procedure: Inhibitory Activity of Compounds at KDR Kinase
• [Experimental method]: Use Lance@Ultra Ulight™-TK assay kit from PerKinElmer to evaluate the inhibitory activity of compounds at KDR kinase. • [Instrument]: PerKinElmer's ENVISION plate reader • [Materials]: Optiplate-384 well plate (PerKinElmer), kinase buffer (50 mM Hepes pH7.5, 0.25 mM EGTA, 2 mM DTT, 0.01% Tween 20, 10 mM Mg^2+, 0.5 mM Mn^2+), KDR kinase (790-1356 AA, Crown Bioscience), KDR kinase substrate (PerKinElmer catalogue # TRF0127-M), Lance@Eu-W1024-anti-phosphotyrosine (PT66) (PerKinElmer, catalogue #AD0068), ATP (Invitrogen), DMSO (Sigma, catalogue #34869), purified water (Millipore, type: Milli-Q). • [Study conditions]: Mix KDR (final concentration: 20 nM) and compound (final DMSO: 0.5%), pre-incubate for 20 min at 30° C.; then add ATP (final concentration: 90 μM) and the substrate (final concentration […]). React for 2 hrs at 30° C. After the reaction, add antibody and reaction for 60 min at 30° C. Read the plate (615 nm, 665 nm), calculate the ratio of the value at 665 nm vs 615 nm and analyze the data. • [Samples]: Compounds in the examples and Sorafenib (positive control) • [Data Analysis]: Use CBIS data analysis software to calculate IC50 values

pERK in MDA-MB-231 cells = assay: Inhibitory activity at pERK (In Cell Western, MDA-MB-231 cells); type: cell-based; conditions: Homo sapiens
Procedure: Inhibitory Activity of Compounds at pERK
When the cells reach 80% confluency, collect cells by trypsinization and centrifugation at 800 rpm for 3 minutes. Resuspend cells with appropriate volume of medium and count cell numbers. Adjust cell concentration to 70000 cells/mL, and split 100 μL cell suspension per well into 96-well plates. Transfer the plates into cell culture incubator (37° C., 5% CO2) and incubate cells overnight. Discard the medium, wash with PBS once, Prepare compound serial dilutions in culture medium with total 8 compound concentrations at 3-fold serial dilutions (the final top concentration starts from 30 μM). Dispense 75 μL DMEM medium (with 0.1% BSA) and 25 μL of each test compound dilution into corresponding wells with DMSO at 0.3% final concentration. Continue incubating cells in cell culture incubator for additional 2 hrs at 37° C., 5% CO2. Discard culture medium, and wash cells once with PBS. Add 100 μL of 4% formaldehyde solution to each well and fix for 20 min. Discard the formaldehyde, then add 100 μL ice-cold 100% methanol at 4° C. for 20 min. Discard methanol, wash with PBS three times. Add to each well 100 μL of 2% BSA solution, seal for 30 min at room temperature. Discard the BSA solution, add to each well 50 μL of the 1st antibody solution (prepared with 2% BSA, 1:250 dilution), incubate at 4° C. overnight. Discard the 1^St antibody solution, wash with PBS four times. Add to each well […] the 2nd antibody solution (prepared with 1% BSA, 1:1000 dilution), incubate at room temperature for 1 hr. Discard the 2nd antibody solution, wash with PBS four times, add to each well 100 μL PI solution (1.5 μM), incubate at room temperature for 30 min. Use Acumen (TPP) to measure the fluorescence. • [Samples]: Compounds in the examples and sorafenib (positive control) • [Data Analysis]: Use CBIS data analysis software to calculate IC50 values

[1] = PLC-PRF-5, PLC-PRF-5 cells, read-out: PLC-PRF-5 cell proliferation IC50
[2] = MDA-MB-231, MDA-MB-231 cells, read-out: MDA-MB-231 pERK IC50

Compound | IC50 (PLC-PRF-5 cells; [1]) | IC50 (KDR kinase (790-1356 AA)) | IC50 (pERK in MDA-MB-231 cells; [2]) | IC50 (PLC-PRF-5 cells; PLC-PRF-5, read-out: PLC-PRF-5 cell proliferation IC50) | IC50 (pERK in MDA-MB-231 cells; MDA-MB-231, read-out: MDA-MB-231 pERK IC50)
O=C(Nc1cccc(C2CC2)c1)Nc1ccc(Oc2ccnc(NC(=O)C3CC3)c2)c(F)c1 [Exe. 057] | 250 nM | 12 nM | 85 nM | – | –
O=C(Nc1cc(C2CCN(C3CC3)CC2)cc(C(F)(F)F)c1)Nc1ccc(Oc2ccnc(NC(=O)C3CC3)c2)c(F)c1 [Exe. 060] | 1510 nM | 34.3 nM | 324 nM | – | –
CN1C(=O)C2(CC2)c2cc(NC(=O)Nc3ccc(Oc4ccnc(NC(=O)C5CC5)c4)cc3)ccc21 [Exe. 066] | 2500 nM | 8 nM | 16 nM | – | –
CC(N)c1cc(NC(=O)Nc2ccc(Oc3ccnc(NC(=O)C4CC4)c3)c(F)c2)cc(C(F)(F)F)c1 (stereo not drawn) [Exe. 068] | 325 nM | 15.7 nM | 8.4 nM | – | –
O=C(Nc1cc(NC2CCNCC2)cc(C(F)(F)F)c1)Nc1ccc(Oc2ccnc(NC(=O)C3CC3)c2)c(F)c1 [Exe. 069] | 10500 nM | 17.1 nM | 337 nM | – | –
Cc1cc(Oc2cc(NC(=O)C3CC3)ncn2)ccc1NC(=O)Nc1ccc(F)c(C(C)(F)F)c1 [Exe. 071] | 20500 nM | 13.3 nM | 100 nM | – | –
Cc1cc(Oc2cc(NC(=O)C3CC3)ncn2)ccc1NC(=O)Nc1ccc(C)c(C(F)(F)F)c1 [Exe. 072] | 7000 nM | 8.9 nM | 12 nM | – | –
Cc1cc(Oc2cc(NC(=O)C3CC3)ncn2)ccc1NC(=O)Nc1cc(Cl)cc(C(F)(F)F)c1 [Exe. 075] | 20000 nM | 13.1 nM | 420 nM | – | –
Cc1cc(Oc2cc(NC(=O)C3CC3)ncn2)ccc1NC(=O)Nc1cc(NC2CCN(C)CC2)cc(C(F)(F)F)c1 [Exe. 076] | 5600 nM | 12.5 nM | 83 nM | – | –
Cc1cc(Oc2cc(NC(=O)C3CC3)ncn2)ccc1NC(=O)Nc1cc(N2CCCC2)cc(C(F)(F)F)c1 [Exe. 077] | 16500 nM | 14.3 nM | 169 nM | – | –
Cc1cc(Oc2cc(NC(=O)C3CC3)ncn2)ccc1NC(=O)Nc1ccc(NC2CCN(C)CC2)c(C(F)(F)F)c1 [Exe. 078] | 879 nM | 13.3 nM | 28 nM | – | –
Cc1cc(Oc2cc(NC(=O)C3CC3)ncn2)ccc1NC(=O)Nc1cccc(OC(F)(F)F)c1 [Exe. 079] | 6000 nM | 14 nM | 80 nM | – | –
Cc1cc(Oc2cc(NC(=O)C3CC3)ncn2)ccc1NC(=O)Nc1cc(OC(F)(F)F)ccc1F [Exe. 080] | 3040 nM | 8.1 nM | 29 nM | – | –
Cc1cc(Oc2cc(NC(=O)C3CC3)ncn2)ccc1NC(=O)Nc1ccc(F)c(OC(F)(F)F)c1 [Exe. 081] | 16000 nM | 13.3 nM | 104 nM | – | –
Cc1cc(Oc2cc(NC(=O)C3CC3)ncn2)ccc1NC(=O)Nc1ccc(Cl)c(OC(F)(F)F)c1 [Exe. 082] | 22500 nM | 6.8 nM | 36 nM | – | –
Cc1cc(Oc2cc(NC(=O)C3CC3)ncn2)ccc1NC(=O)Nc1cc(F)cc(C(C)(F)F)c1 [Exe. 083] | 20400 nM | 14.3 nM | 609 nM | – | –
Cc1cc(Oc2cc(NC(=O)C3CC3)ncn2)ccc1NC(=O)Nc1cccc(C(C)(F)F)c1 [Exe. 084] | 5860 nM | 12.2 nM | 122 nM | – | –

Compound | IC50 (PLC-PRF-5 cells; [1]) | IC50 (KDR kinase (790-1356 AA)) | IC50 (pERK in MDA-MB-231 cells; [2]) | IC50 (PLC-PRF-5 cells; PLC-PRF-5, read-out: PLC-PRF-5 cell proliferation IC50) | IC50 (pERK in MDA-MB-231 cells; MDA-MB-231, read-out: MDA-MB-231 pERK IC50)
Cc1cc(Oc2cc(NC(=O)C3CC3)ncn2)ccc1NC(=O)Nc1ccc(C#N)c(Cl)c1 [Exe. 086] | – | 8.3 nM | – | 19300 nM | 226 nM
Cc1cc(Oc2cc(NC(=O)C3CC3)ncn2)ccc1NC(=O)Nc1cc(N2CCOCC2)cc(C(F)(F)F)c1 [Exe. 087] | 5050 nM | 12.9 nM | 36 nM | – | –
O=C(Nc1ccc(Oc2cc(NC(=O)C3CC3)ncn2)c(Cl)c1)Nc1ccc(F)c(C(F)(F)F)c1 [Exe. 088] | 2050 nM | 11.4 nM | 106 nM | – | –
O=C(Nc1ccc(F)c(C(F)(F)F)c1)Nc1ccc(Oc2cc(NC(=O)C3CC3)ncn2)cc1Cl [Exe. 089] | 6870 nM | 15.2 nM | 19 nM | – | –
O=C(Nc1cc(F)cc(C(F)(F)F)c1)Nc1ccc(Oc2cc(NC(=O)C3CC3)ncn2)cc1Cl [Exe. 090] | 2800 nM | 12.2 nM | 42 nM | – | –
Cc1cc(Oc2cc(NC(=O)C3CC3)ncn2)c(F)cc1NC(=O)Nc1ccc(Cl)c(C(C)(F)F)c1 [Exe. 091] | 7600 nM | 12.8 nM | 53 nM | – | –
Cc1cc(NC(=O)Nc2ccc(F)c(C(F)(F)F)c2)cc(Oc2cc(NC(=O)C3CC3)ncn2)c1 [Exe. 092] | 17200 nM | 192 nM | 57 nM | – | –
Cc1cc(NC(=O)Nc2cccc(C(F)(F)F)c2)cc(Oc2cc(NC(=O)C3CC3)ncn2)c1 [Exe. 094] | 19000 nM | 200 nM | 163 nM | – | –
Cc1cc(NC(=O)Nc2cccc(OC(F)(F)F)c2)cc(Oc2cc(NC(=O)C3CC3)ncn2)c1 [Exe. 095] | 19200 nM | 434 nM | 82 nM | – | –
Cc1cc(NC(=O)Nc2ccc(Cl)c(C(C)(F)F)c2)cc(Oc2cc(NC(=O)C3CC3)ncn2)c1 [Exe. 096] | 21000 nM | 624 nM | 28 nM | – | –
O=C(Nc1cc(F)cc(Oc2cc(NC(=O)C3CC3)ncn2)c1)Nc1ccc(F)c(C(F)(F)F)c1 [Exe. 097] | 9100 nM | 62.8 nM | 137 nM | – | –
O=C(Nc1cc(F)cc(Oc2cc(NC(=O)C3CC3)ncn2)c1)Nc1cc(F)cc(C(F)(F)F)c1 [Exe. 098] | 8400 nM | 105 nM | 752 nM | – | –
CC(F)(F)c1cc(NC(=O)Nc2cc(F)cc(Oc3cc(NC(=O)C4CC4)ncn3)c2)ccc1Cl [Exe. 099] | 15000 nM | 41 nM | 37 nM | – | –
O=C(Nc1ccc(Oc2cc(NC(=O)C3CC3)ncn2)cc1)Nc1ccc(F)c(C(F)(F)F)c1 [Exe. 100] | 2420 nM | 9 nM | 300 nM | – | –
O=C(Nc1ccc(Oc2cc(NC(=O)C3CC3)ncn2)cc1)Nc1cc(F)cc(C(F)(F)F)c1 [Exe. 101] | 2600 nM | 12.5 nM | 682 nM | – | –
O=C(Nc1cccc(C(F)(F)F)c1)Nc1ccc(Oc2cc(NC(=O)C3CC3)ncn2)c(F)c1 [Exe. 102] | 936 nM | 15 nM | 294 nM | – | –
